Entries after “also recorded” stand apart in the source; their conditions may differ. A value given as a limit tells only on which side of the number the result lay.

Data set [1] in a line: Minocycline HCl compatibility tests with excipients (colour change, HPLC assay). Type of data set: physicochemical. As to conditions: for Compatibility with Minocycline HCL: Summary, compatibility tested after the storage for up to 3 weeks. On the procedure: About 0.5 g foam or pre-foam formulation is dissolved with diluent (65% phosphate buffer: 35% Acetonitrile (ACN)) in a 25 mL volumetric flask. The sample is shaken […] on an inverted shaker stand for 10 min at room temperature. The resulting suspension is centrifuged for 5 minutes at 4000 rpm. The supernatant is separated by vacuum pump and filtered thereafter through a 0.45 μm PTFE+GL filter. The first few drops of the filtrate are discarded. The resultant clear solution layer is analyzed by HPLC using columnRP-8. The content of MCH is calculated against an MCH standard 0.4 mg/mL (concentration). The content of 4-epiminocycline is calculated against MCH standard 0.02 mg/mL (concentration).
Color is tested by visual observation and in particular by comparison to “Pantone® formula guide solid uncoated” colors. […] Minocycline changes color to orange/greenish with oxidation or complexation. These oxidized colors are not desirable. Colors such as 609U/608U/610U are indicative of degradation by the tetracycline antibiotic.
For convenience the excipients were divided into four different groups (I-IV).
Different compositions of hydrophilic and hydrophobic solvents containing minocycline HCl were prepared by weighing the antibiotic in a glass vial and shaking overnight with each solvent investigated (Group I and II).
Mixtures of Minocycline HCl with solid excipients like titanium dioxide, stearyl alcohol, myristyl alcohol etc were prepared by suspending Minocycline HCl in oil with stirring and then adding the solid ingredient as a powder with stirring at room temperature (Group III an IV).
Oxidation of minocycline after the storage at various temperatures was detected by color change. Assay for content of the active pharmaceutical ingredient (API) and degradation product (4-epiminocycline) was determined in some samples.
A series of experiments were performed to evaluate which mixture of components/ingredients were compatible or incompatible with minocycline. Each component or combinations of components were mixed with either 1.1% or 2.2% Minocycline HCl. The glass vials containing the formulations were wrapped in aluminum—and were subjected to a range of temperatures 25° C.; 30° C.; 40° C.; 50 C; for between one week to about 3 weeks. The best results are shown as “compatible no oxidation”.

Data set [2] can be described thus: Doxycycline Hyclate compatibility test with excipients. It is filed as physicochemical. Conditions: for Visual inspection after the storage at 25° C.: stored at 25° C. for two weeks; for Visual inspection after the storage at 40° C.: stored at 40° C. for two weeks; for Visual inspection after the storage at 50° C.: stored at 50° C. for two weeks. How it is done:
Different compositions of hydrophilic and hydrophobic solvents containing Doxycycline Hyclate (Set I and Set II) and Doxycycline Monohydrate (Set III) were prepared by weighing the antibiotic in a glass vial and shaking overnight with each solvent investigated.
Group II included Doxycycline Hyclate mixed with various vehicles with addition of antioxidants like alpha tocopherol, butylated hydroxytolyene (BHT), ascorbic acid.

Data set [3] in a line: Doxycycline Monohydrate compatibility test with excipients. It is filed as physicochemical. As to conditions: for Compatibility with Doxycycline Monohydrate: Summary, compatibility tested after the storage for up to 3 weeks; for Compatibility with Doxycycline Monohydrate (text): as summarised in text, 40° and 50° C. for two weeks where stated; for Visual inspection after the storage at 25° C. / Visual inspection after the storage at 40° C. / Visual inspection after the storage at 50° C. / Visual inspection at T-0: Mixtures of 1.04% w/w of Doxycycline Monohydrate with the ingredient; for Visual inspection after the storage at 25° C.: stored at 25° C. for two weeks; for Visual inspection after the storage at 40° C.: stored at 40° C. for two weeks; for Visual inspection after the storage at 50° C.: stored at 50° C. for two weeks. How it is done:
Different compositions of hydrophilic and hydrophobic solvents containing Doxycycline Hyclate (Set I and Set II) and Doxycycline Monohydrate (Set III) were prepared by weighing the antibiotic in a glass vial and shaking overnight with each solvent investigated. Mixtures of Doxycycline salts 1.04% w/w with solid excipients were prepared in a similar way as for Minocycline HCl.
A similar compatibility test was performed on another form of Doxycycline-Doxycycline Monohydrate. Table 17b and Table 18.

On data set [4], the source says:
In one or more embodiments of the present disclosure, the foamable composition includes a potent solvent, in addition to or in place of one of the hydrophobic solvents, polar solvents or emollients of the composition. A potent solvent is a solvent other than mineral oil that solubilizes a specific active agent substantially better than a hydrocarbon solvent such as mineral oil or petrolatum.

For data set [5] the following is noted: cited from earlier work.
[6] abbreviates: 40° C. and 50° C. for two weeks where stated.
Where [7] appears, read: Summary, compatibility tested after the storage for up to 3 weeks.
[8] abbreviates: Group II, mixture with 1.1% of Minocycline HCl, 10 days at 40° C.
Where [9] appears, read: Group II, mixture with 1.1% of Minocycline HCl, T-0.
Where [10] appears, read: Mixtures of 1.04% w/w of Doxycycline Hyclate with the ingredient.

For the compound `CCCCCCCCCCC(CO)CCCCCCCC` (stereo not drawn) [Octyldodecanol], in data set [1], the “Compatibility with Minocycline HCl” value is “full compatibility; also recorded: compatible” and the “Compatibility with Minocycline HCL” value is given as “Yes”. For the same compound, the “Compatibility with Doxycycline Hyclate” value in data set [2] (setting [6]) is on record as “incompatibility”. Besides, the “Compatibility with Doxycycline Hyclate” value in data set [2] (setting [7]) is given as “No”. Also, in data set [3], the “Compatibility with Doxycycline Monohydrate” value is listed as “No” and the “Compatibility with Doxycycline Monohydrate (text)” value (“Compatibility … (text)” below) is given as “incompatibility”.
Consider `C/C(=C\C(=O)OCCCCCCCCC(=O)O)C[C@@H]1OC[C@H](C[C@@H]2O[C@H]2[C@@H](C)[C@H](C)O)[C@@H](O)[C@H]1O` [Mupirocin], for which, in data set [4], the “Solubility in dimethyl isosorbide” value is given as “more than 1%”, the Solubility in glycofurol entry is on record as “more than 1%”, the “Solubility in mineral oil” value is under 0.01% and the “Solubility in polyethylene glycol 400 (PEG 400)” value is “more than 1%”. The “Solubility in propylene glycol” value in data set [4] is given as “more than 1%”.
For the compound `CCCCCCCC/C=C\CCCCCCCCO` [Oleyl alcohol], the “Compatibility with Minocycline HCL” value in data set [1] is on record as “Yes”. In data set [2] (setting [7]), the “Compatibility with Doxycycline Hyclate” value is “Yes”.
As to `CCCCCCCCCCCCCCO` [Myristyl alcohol], in data set [1], the “Compatibility with Minocycline HCL” value is listed as “Yes”. The “Compatibility with Doxycycline Hyclate” value in data set [2] (setting [7]) is “Yes”.
Take Sorbitan Monostearate: the “Compatibility with Minocycline HCL” value in data set [1] is “Yes”. In addition, in data set [2] (setting [7]), the “Compatibility with Doxycycline Hyclate” value is “Yes”.
As for `CCO` [Ethanol 95%], in data set [1], the “Compatibility with Minocycline HCl” value is recorded as “changed their colour from yellow to orange” and the “Compatibility with Minocycline HCL” value is given as “No”. Moreover, in data set [1] (setting [8]), the “4-epiminocycline Assay (% w/w), 10 days at 40° C.” value came out at 0.39 % w/w and the “Minocycline Assay (% w/w), 10 days at 40° C.” value worked out at 0.52 % w/w. Also, in data set [1] (setting [9]), the “4-epiminocycline Assay (% w/w), T-0” value is given as 0.021 % w/w and the “Minocycline Assay (% w/w), T-0” value worked out at 0.97 % w/w. For the same compound, the “Compatibility with Doxycycline Hyclate” value in data set [2] (setting [6]) is reported as “stable”. Moreover, the “Compatibility with Doxycycline Hyclate” value in data set [2] (setting [7]) is given as “Yes”. In data set [3], the “Visual inspection after the storage at 25° C.” value (“Visual inspection … at 25° C.” below) is listed as “Brown solution”, the “Visual inspection after the storage at 40° C.” value (from here on “Visual inspection … at 40° C.”) is reported as “Brown solution”, the “Visual inspection after the storage at 50° C.” value (“Visual inspection … at 50° C.” below) is on record as “Black solution” and the “Compatibility with Doxycycline Monohydrate” value was “No”. Also, in data set [3], the “Compatibility … (text)” value is on record as “changed their colour from yellow to orange”. For the same compound, the “Compatibility … (text)” value in data set [3] (listed as ethanol 95%) was “oxidized”.
For `CCCCCCCCCCCCCCCCCCO` [Stearyl alcohol], the “Compatibility with Minocycline HCL” value in data set [1] is “Yes”. In addition, the “Compatibility with Doxycycline Hyclate” value in data set [2] (setting [7]) was “Yes”.
As to `Cc1ncc([N+](=O)[O-])n1CCO` [Metronidazole], in data set [4], the “Solubility in dimethyl isosorbide” value is given as “more than 1%” and the “Solubility in mineral oil” value is reported as under 0.01%.
On to `Cc1cnc(NC(=O)C2=C(O)c3ccccc3S(=O)(=O)N2C)s1` [Meloxicam], for which the “Solubility in mineral oil” value in data set [4] is recorded as under 0.001%.
On to `CCCC(=O)O[C@]1(C(=O)CO)CC[C@H]2[C@@H]3CCC4=CC(=O)CC[C@]4(C)[C@H]3[C@@H](O)C[C@@]21C` [Hydrocortisone butyrate], for which, in data set [4], the Solubility in glycofurol result was “more than 1%” and the “Solubility in mineral oil” value was under 0.01%.
Take `OCCCCO` [Butylene glycol]: the “Compatibility with Minocycline HCL” value in data set [1] was “No”. For the same compound, the “Compatibility with Doxycycline Hyclate” value in data set [2] (setting [7]) is reported as “No”. Moreover, in data set [3], the “Visual inspection … at 25° C.” value is “Orange solution”, the “Visual inspection … at 50° C.” value is “black solution” and the “Compatibility with Doxycycline Monohydrate” value was “No”.
Regarding `CC(=O)N1CCN(c2ccc(OCC3COC(Cn4ccnc4)(c4ccc(Cl)cc4Cl)O3)cc2)CC1` (stereo not drawn) [Ketoconazole], in data set [4], the “Solubility in dimethyl isosorbide” value is “more than 1%”, the Solubility in glycofurol entry is reported as “more than 1%”, the “Solubility in mineral oil” value is recorded as under 0.01% and the “Solubility in propylene glycol” value is “more than 1%”.
As for `C[C@H]1c2cccc(O)c2C(=O)C2=C(O)[C@]3(O)C(=O)C(C(N)=O)=C(O)[C@@H](N(C)C)[C@@H]3[C@@H](O)[C@@H]21` [doxycycline monohydrate], the Solubility in alcohol entry in data set [5] (alcohol) is reported as “sparingly soluble”. The Solubility in water result in data set [5] (water) was “very slightly soluble”.
Take `CO[C@H]1CO[C@H]2[C@@H]1OC[C@H]2OC` [Dimethyl Isosorbide]: the “Compatibility with Minocycline HCL” value in data set [1] is “No”. The “Visual inspection at T-0” value in data set [2] (Mixtures of 1.04% w/w of Doxycycline Hyclate with the ingredient, T-0 (two-week study)) was “yellow solution”. Moreover, in data set [2] (setting [10]), the “Visual inspection … at 25° C.” value was “Yellow solution”, the “Visual inspection … at 40° C.” value is given as “Brownish orange” and the “Visual inspection … at 50° C.” value is recorded as “Orange solution”. Further, the “Compatibility with Doxycycline Hyclate” value in data set [2] (setting [7]) was “No”. In addition, in data set [3], the “Visual inspection at T-0” value is listed as “yellow solution”, the “Visual inspection … at 25° C.” value is “orange solution”, the “Visual inspection … at 40° C.” value is “orange orange” and the “Visual inspection … at 50° C.” value was “Orange solution”. The “Compatibility with Doxycycline Monohydrate” value in data set [3] is “No”.
For the compound `CC(C)CCCCCCCCCCCCCCC(=O)O` [Isostearic Acid], the “Compatibility with Minocycline HCL” value in data set [1] is recorded as “No”. In data set [2] (setting [7]), the “Compatibility with Doxycycline Hyclate” value is given as “Yes”.
For `CC(=O)[C@H]1CC[C@H]2[C@@H]3CCC4=CC(=O)CC[C@]4(C)[C@H]3CC[C@]12C` [Progesterone], the “Solubility in mineral oil” value in data set [4] is listed as under 0.001%.
Turning to `CCCCC(=O)O[C@]1(C(=O)CO)[C@@H](C)C[C@H]2[C@@H]3CCC4=CC(=O)C=C[C@]4(C)[C@@]3(F)[C@@H](O)C[C@@]21C` [Betamethasone valerate], in data set [4], the Solubility in glycofurol entry is on record as “more than 1%” and the “Solubility in mineral oil” value is given as under 0.01%.
As for `C[Si]1(C)O[Si](C)(C)O[Si](C)(C)O[Si](C)(C)O[Si](C)(C)O1` [Cyclomethicone 5 NF], the “Compatibility with Minocycline HCL” value in data set [1] was “Yes”. Also, the “Compatibility with Doxycycline Hyclate” value in data set [2] (setting [7]) was “Yes”. The “Compatibility with Doxycycline Monohydrate” value in data set [3] is on record as “Yes”.
`CC(C)OC(=O)CCCCC(=O)OC(C)C` [Diisopropyl adipate]: the “Compatibility with Minocycline HCL” value in data set [1] is recorded as “Yes”. Further, in data set [2] (setting [7]), the “Compatibility with Doxycycline Hyclate” value is given as “Yes”. Further, the “Compatibility with Doxycycline Monohydrate” value in data set [3] is reported as “No”.
As for Sorbitan Monolaurate, in data set [1], the “Compatibility with Minocycline HCL” value is reported as “No”. Moreover, in data set [2] (setting [10]), the “Visual inspection … at 25° C.” value is “Brown solution”, the “Visual inspection … at 40° C.” value is “Brown solution” and the “Visual inspection … at 50° C.” value is on record as “Black solution”. The “Compatibility with Doxycycline Hyclate” value in data set [2] (setting [7]) is “No”. In data set [3], the “Visual inspection at T-0” value is on record as “Brown mixture”, the “Visual inspection … at 25° C.” value is recorded as “orange solution”, the “Visual inspection … at 40° C.” value is reported as “Brown solution” and the “Visual inspection … at 50° C.” value is recorded as “brown solution”. For the same compound, the “Compatibility with Doxycycline Monohydrate” value in data set [3] was “No”.

Values taken from patent US8343945B2, “Carriers, formulations, methods for formulating unstable active agents for external application and uses thereof” (Foamix Ltd., priority 2007, dated 2013).
